Assay results from US20220362227A1, “COMPOSITION OF PHYTONUTRIENTS FOR DIABETES MANAGEMENT” (ROSEMAN UNIVERSITY OF HEALTH SCIENCES, priority 2021, published 2022).

Tests used:
[1] = test system: primary human preadipocytes; assay: Adipogenesis assay (adipogenic biomarkers, Oil Red O staining); format: cell-based; details: for EC50: read-out: EC50 (anti-adipogenic phytonutrients)
Procedure: Adipogenesis Assays. Primary human preadipocytes were grown to confluence in growth media. At 2 days post-confluence, growth media were aspirated off the culture dishes and complete differentiation media were added. Complete differentiation media comprise […] with 18.5 mM glucose, HEPES (15 mM), NaHCO3 (25 mM), 100 units/ml penicillin, 100 μg/ml streptomycin, d-biotin (33 μM), pantothenate (17 μM), dexamethasone (100 nM), insulin (100 nM), rosiglitazone (1 μM), IBMX (0.5 mM), triiodothyronine (T3, 2 nM), and transferrin (10 μg/ml). On day three post-differentiation, complete differentiation media were replenished. On day seventh post-differentiation, complete differentiation media were replaced with maintenance media. Maintenance media comprise […], 100 units/ml penicillin, 100 μg/ml streptomycin, HEPES (15 mM), NaHCO3 (25 mM), d-biotin, pantothenate, insulin (10 nM), and dexamethasone (10 nM). Maintenance media were replenished on days tenth post-differentiation. Complete differentiation of preadipocytes into adipocytes were achieved on day fourteenth post-differentiation. To screen for anti-adipogenic phytonutrients, individual phytonutrients were mixed in complete differentiation media from day 0 to day 6th post-differentiation. Phytonutrients were removed together with complete differentiation media on day 7th post-differentiation following the replacement with maintenance media. Anti-adipogenic phytonutrients were identified based on their ability to: (1) suppress the expression of adipogenic biomarkers using proteomic assays of total cell extracts collected on day 6th post-differentiation, and (2) suppress intracellular lipid droplet accumulation using Oil Red O staining assays on day 14th post-differentiation.

Akt2 = assay: Screening for insulin-sensitizing phytonutrients: cIEF immunoassays of Akt2 phosphorylation; format: cell-based, human; details: for EC50: half-maximal effective concentration, primary human preadipocytes; for Akt2 phosphorylation on cIEF electropherogram: treatment alone, 30 minutes, versus untreated control; for increase of insulin-stimulated pAkt2 (Ser473) phosphorylation: together with 100 nM insulin, compared to insulin alone, cIEF
Source text: (§1) Mapping Akt Isoforms Using Capillary Isoelectric Focusing (cIEF) Immunoassays. cIEF immunoassays separate proteins in total cell extracts (TCEs) by their isoelectric points (pIs) in nano-capillaries. The positions of the proteins are stabilized via UV-irradiated crosslinking of proteins to the sidewalls of the capillaries. A primary antibody that recognizes a specific protein of interest is introduced to individual capillaries. Then a secondary antibody linked to horseradish peroxidase is introduced. Following the introduction of the chemiluminescent substrates, the distribution of the isoforms of a protein is detected and presented graphically as electropherograms of intensity versus isoelectric points. Phosphorylation and acetylation of a protein generally leads to shifts toward lower pI values. In contrast, glycosylation of a protein generally leads to a shift toward higher pI values.
(§2) Human Primary Preadipocytes. Primary human preadipocytes were isolated from omental adipose tissues overweight and diabetic donors who were undergoing elective surgery using a previously published protocol. Primary human preadipocytes were maintained in growth media comprising Minimum Essential Medium a supplemented with 10% fetal bovine serum, 100 units/ml penicillin, and 100 μg/ml streptomycin.
(§3) Screening for Insulin-Sensitizing Phytonutrients. Primary human preadipocytes were treated for 30 minutes with 100 nM insulin (Humulin R, Eli Lilly, Indianapolis, Ind.), individual phytonutrients (Table 1 & Table 2), or combinations of insulin and phytonutrients. Total cell extracts (TCE) were collected and subjected to nanofluidic proteomic analysis including capillary isoelectric focusing (cIEF) immunoassays and capillary Western (CW) immunoassays.
(§4) Preparation of Total Cell Extracts. Approximately one million cells were incubated on ice for 10 minutes with 60 μl of lysis buffer (cat. no. 040-764, ProteinSimple, Santa Clara, Calif., USA), sonicated 4 times for 5 seconds each, mixed by rotation for 2 hours at 4° C., and centrifuged at 12,000 rpm in an Eppendorf 5430R microfuge for 20 minutes at 4° C. The supernatant was collected as the cell lysate. The total protein concentration in the cell lysate was determined with a Bradford protein assay and adjusted to a final concentration of 0.3 μg/μl with separation gradients (cat. no. Premix G2, pH 5-8, ProteinSimple, Santa Clara, Calif.) for charge-based cIEF immunoassays or to 0.4 μg/μl with denaturing buffers (cat. no. PS-ST01EZ or PS-ST03EZ, ProteinSimple) for size-based Western immunoassays.
(§5) Capillary Isoelectric Focusing Immunoassays. Cell lysates in separation gradients were loaded into 384-well assay plates (cat. no. 040-663, ProteinSimple) preloaded with primary and secondary antibodies and chemiluminescent substrates. Charge-based protein separation and detection in individual capillaries were performed using the default protocols of the NanoPro 1000 system (ProteinSimple). Hsp70 was used as the loading control. All cIEF immunoassays were performed in triplicate for each protein, and duplicate experiments were performed for each treatment condition, producing six repeated measurements per protein.

Akt1 = assay: cIEF immunoassays of Akt1; format: cell-based, human; details: for Akt1 cIEF electropherogram: treatment alone, 30 minutes, versus untreated
Source text: as §1, §3
as §4, with “The supernatant was collected as the cell lysate.” left out, “immunoassays. […]” for “immunoassays.”

Akt3 = assay: cIEF immunoassays of Akt3; format: cell-based, human; details: for Akt3 cIEF electropherogram: treatment alone, 30 minutes, versus untreated
Source text: as §1, §3
as §4, with “The supernatant was collected as the cell lysate.” left out, “immunoassays. […]” for “immunoassays.”

Akt = assay: Capillary Western and cIEF immunoassays of pAkt (Thr308), pAkt (Thr450), pAkt (Ser473); format: cell-based, human; details: for increase of pAkt (Ser473) phosphorylation / increase of pAkt (Thr308) phosphorylation / increase of pAkt (Thr450) phosphorylation: 30 minutes treatment, versus untreated control, capillary Western densitometry
Procedure: as §2, §3, §4, §5
Capillary Western Immunoassays. Cell lysates in denaturing buffers were denatured at 95° C. for 5 minutes, and then transferred to assay plates (cat. no. SM-W004 or SM-W008, ProteinSimple) preloaded with blocking reagents, wash buffer, primary and secondary antibodies, and chemiluminescent substrates. Sized-based protein separation and detection in capillaries were performed using the default protocols of the Jess system (ProteinSimple). β-Actin was used as loading controls. All capillary Western immunoassays were performed in triplicate for each protein, and duplicate experiments were performed for each treatment condition, producing six repeated measurements per protein.

[2] = test system: primary human preadipocytes; assay: Glucose uptake assay (2-NBDG, flow cytometry); format: cell-based; details: together with 100 nM insulin, compared to insulin alone, 30 minutes
Procedure: The glucose uptake assay used 2-NBDG, a fluorescently-labeled deoxyglucose analog, as a probe for the detection of glucose taken up by human primary preadipocytes. Flow cytometry was used to detect 2-NBDG uptake in single preadipocytes.
Glucose Uptake Assays. Primary human preadipocytes grown to 70% confluence in growth media, washed with phosphate buffered saline, and replaced with glucose-free DMEM media. Following 2 hours of incubation in glucose-free DMEM media, preadipocytes were treated with 100 μg/ml of 2-NDBG fluorescent glucose analog and insulin (100 nM) or phytonutrients (EC50) for 30 minutes. Preadipocytes were collected and analyzed using the Acuri C6 flow cytometer (BD Biosciences, San Jose, Calif.) and the 485 nm excitation and 535 nm emission filters.

[3] = half-maximal effective concentration, primary human preadipocytes
[4] = together with insulin, compared to insulin alone

O=c1c(O)c(-c2ccc(O)c(O)c2)oc2cc(O)cc(O)c12 [Quercetin]
EC50 [1, 3]: 25 µM

Fucoidan
EC50 (anti-adipogenic phytonutrients) [1, 3]: 100 µg/mL

COc1ccc([C@@H]2CC(=O)c3c(O)cc(O[C@@H]4O[C@H](CO[C@@H]5O[C@@H](C)[C@H](O)[C@@H](O)[C@H]5O)[C@@H](O)[C@H](O)[C@H]4O)cc3O2)cc1O [Hesperidin]
EC50 [1, 3]: 20 µM

O=c1c(O)c(-c2ccc(O)c(O)c2)oc2cc(O)ccc12 [Fisetin]
EC50 [1, 3]: 50 µM

OCc1c[nH]c2ccccc12 [Indole-3-Carbinol]
EC50 [1, 3]: 20 µM

O=C(O[C@@H]1Cc2c(O)cc(O)cc2O[C@@H]1c1cc(O)c(O)c(O)c1)c1cc(O)c(O)c(O)c1 [Epigallocatechin Gallate]
EC50 [1, 3]: 20 µM

O=CC=Cc1ccccc1 [Cinnamaldehyde]
EC50 (Akt2): 40 µM | Akt2 phosphorylation on cIEF electropherogram (Akt2): new peak at pI 5.41 | phosphorylation of Akt1 on cIEF electropherogram (Akt1; [4]): no observable effect | Akt1 cIEF electropherogram (Akt1): no observable effect | phosphorylation of Akt3 on cIEF electropherogram (Akt3; [4]): no observable effect | Akt3 cIEF electropherogram (Akt3): no observable effect | increase of pAkt (Ser473) phosphorylation (Akt): no effect | increase of pAkt (Thr308) phosphorylation (Akt): no effect | increase of pAkt (Thr450) phosphorylation (Akt): 1.6 folds | increase of insulin-stimulated pAkt (Ser473) phosphorylation (Akt; together with 100 nM insulin, compared to insulin alone, cIEF and CW immunoassays): ~4 folds | increase of insulin-stimulated glucose uptake by preadipocytes [2]: approximately 1.6 folds

Oc1ccc(C=Cc2cc(O)cc(O)c2)cc1 [Resveratrol]
EC50 [1, 3]: 40 µM

COc1cc(/C=C/C(=O)CC(=O)/C=C/c2ccc(O)c(OC)c2)ccc1O [Curcumin]
EC50 (Akt2): 20 µM | increase of insulin-stimulated pAkt2 (Ser473) phosphorylation (Akt2): approximately 4 folds | Akt2 phosphorylation on cIEF electropherogram (Akt2): new peak at pI 5.41 | increase of insulin-stimulated glucose uptake by preadipocytes [2]: ~1.7 folds

insulin: 100 nM insulin (Humulin R, Eli Lilly) [reference compound]
Akt2 phosphorylation on cIEF electropherogram (Akt2): two new peaks at pI 5.20 and pI 5.30 | Akt1 cIEF electropherogram (Akt1): nearly identical | Akt3 cIEF electropherogram (Akt3): two new peaks at pI 5.03 and pI 5.12 | increase of pAkt (Ser473) phosphorylation (Akt): ~5.7 folds | increase of pAkt (Thr308) phosphorylation (Akt): approximately 3 folds | increase of pAkt (Thr450) phosphorylation (Akt): ~1.6 folds

O=c1cc(-c2ccc(O)c(O)c2)oc2cc(O)cc(O)c12 [Luteolin]
EC50 [1, 3]: 20 µM

COc1ccc2cc3[n+](cc2c1OC)CCc1cc2c(cc1-3)OCO2 [Berberine]
increase of insulin-stimulated pAkt2 (Ser473) phosphorylation (Akt2): no effect | Akt2 phosphorylation on cIEF electropherogram (Akt2): no effect | inhibition of adipogenesis ([1]; differentiating primary human preadipocytes): strong inhibitor of adipogenesis | EC50 [1, 3]: 10 µM | increase of insulin-stimulated glucose uptake by preadipocytes [2]: no effect
